Measured values from paper PMC3692405, “Disease-associated mutations in CNGB3 promote cytotoxicity in photoreceptor-derived cells” (Molecular Vision, 2013).
Where two headings read alike, the source gives them in different places.

Key:
[1] = target: T1, CNGA3 plus CNGB3 T383fsX channels (Homo sapiens, UniProt Q16281); experiment: Inside-out patch-clamp recording of channels expressed in Xenopus oocytes (CNGB3 T383fsX); type: biochemical
T1 construct: expressed in transfected cells; host or cells: Xenopus laevis oocytes injected with cRNA transcribed from pGEMHE constructs
T1 sequence (Q16281 1-694): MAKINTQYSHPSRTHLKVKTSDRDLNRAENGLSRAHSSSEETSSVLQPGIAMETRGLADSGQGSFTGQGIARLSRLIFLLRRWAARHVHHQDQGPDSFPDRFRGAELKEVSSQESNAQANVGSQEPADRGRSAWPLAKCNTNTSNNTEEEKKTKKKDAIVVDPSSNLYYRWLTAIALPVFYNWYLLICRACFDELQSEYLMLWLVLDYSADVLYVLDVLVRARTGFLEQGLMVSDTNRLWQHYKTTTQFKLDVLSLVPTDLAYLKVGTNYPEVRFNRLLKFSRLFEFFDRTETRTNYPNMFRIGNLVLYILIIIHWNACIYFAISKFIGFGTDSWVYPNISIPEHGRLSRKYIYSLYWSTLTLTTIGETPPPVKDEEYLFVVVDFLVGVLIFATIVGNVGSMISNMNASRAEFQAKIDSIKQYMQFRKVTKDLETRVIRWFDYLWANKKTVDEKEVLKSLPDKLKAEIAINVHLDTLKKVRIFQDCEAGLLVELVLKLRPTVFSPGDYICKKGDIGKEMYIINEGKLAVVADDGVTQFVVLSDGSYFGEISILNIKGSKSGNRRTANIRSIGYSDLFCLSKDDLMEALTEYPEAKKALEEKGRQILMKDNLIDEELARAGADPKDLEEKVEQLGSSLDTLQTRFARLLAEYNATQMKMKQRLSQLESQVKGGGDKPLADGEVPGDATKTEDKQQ
Protocol: (§1) For heterologous expression in Xenopus laevis oocytes, identical amounts of cDNA were linearized using SphI or NheI, and capped cRNA was transcribed in vitro using the T-7 RNA polymerase mMESSAGE mMACHINE® kit (Ambion, Austin, TX). cRNA concentrations and relative amounts were determined by denaturing gel electrophoresis and KODAK 1D image analysis software (Rochester, NY), as well as by spectrophotometry. […] Oocytes were incubated in ND96 (96 mM NaCl, 2 mM KCl, 1.8 mM CaCl2, 1 mM MgCl2, and 5 mM HEPES, pH 7.6, supplemented with 10 μg/ml gentamycin).
(§2) Two to seven days after microinjection of cRNA, patch-clamp experiments were performed using the inside-out configuration with an Axopatch 200B amplifier (Axon Instruments, Foster City, CA). Recordings were made at 20–23 °C. Data were acquired using Pulse software (HEKA Elektronik, Lambrecht, Germany). Current traces were elicited by voltage steps from a holding potential of 0 mV to +80 mV, then to −80 mV and back to 0 mV. Initial pipette resistances were 0.4–0.8 megaohms. Intracellular and extracellular solutions contained 130 mM NaCl, 0.2 mM EDTA, and 3 mM HEPES (pH 7.2). Intracellular solutions were exchanged using an RSC-160 rapid solution changer (Molecular Kinetics, Indianapolis, IN). Currents in the absence of cyclic nucleotides were subtracted. For channel activation by CPT-cGMP or CPT-cAMP, dose–response data were fitted with the Hill equation, I/Imax=([cNMP]^h/(K1/2^h + [cNMP]^h)), where I is the current amplitude at +80 mV, Imax is the maximum current elicited by saturating concentration of ligand, [cNMP] is the ligand concentration, K1/2 is the apparent ligand affinity, and h is the Hill slope. We measured sensitivity to block by L-cis-diltiazem (RBI, Natick, MA) applied to the intracellular face of the patch in the presence of 0.1 μM CPT-cGMP. Data were fit with a modified Hill equation in the form I blocker/I=(K1/2^h/(K1/2^h + [blocker]^h)). Data were analyzed using Igor (Wavemetrics, Lake Oswego, OR), SigmaPlot, and SigmaStat (Systat Software Inc., San Jose, CA). All values are reported as the mean±standard error of the mean of n experiments unless otherwise indicated. Statistical significance was determined using a Student t test or Mann–Whitney rank sum test, and a p value of <0.05 was considered significant.

[2] = target: T2, CNGA3 plus CNGB3-F525N channels (Homo sapiens, UniProt Q16281+Q9NQW8, F525N); experiment: Inside-out patch-clamp recording of channels expressed in Xenopus oocytes (CNGB3 F525N); type: biochemical
T2 construct: expressed in transfected cells; host or cells: Xenopus laevis oocytes injected with cRNA transcribed from pGEMHE constructs
T2 sequence (Q16281 1-694): T1 sequence (Q16281 1-694)
T2 sequence (Q9NQW8 1-809 F525N): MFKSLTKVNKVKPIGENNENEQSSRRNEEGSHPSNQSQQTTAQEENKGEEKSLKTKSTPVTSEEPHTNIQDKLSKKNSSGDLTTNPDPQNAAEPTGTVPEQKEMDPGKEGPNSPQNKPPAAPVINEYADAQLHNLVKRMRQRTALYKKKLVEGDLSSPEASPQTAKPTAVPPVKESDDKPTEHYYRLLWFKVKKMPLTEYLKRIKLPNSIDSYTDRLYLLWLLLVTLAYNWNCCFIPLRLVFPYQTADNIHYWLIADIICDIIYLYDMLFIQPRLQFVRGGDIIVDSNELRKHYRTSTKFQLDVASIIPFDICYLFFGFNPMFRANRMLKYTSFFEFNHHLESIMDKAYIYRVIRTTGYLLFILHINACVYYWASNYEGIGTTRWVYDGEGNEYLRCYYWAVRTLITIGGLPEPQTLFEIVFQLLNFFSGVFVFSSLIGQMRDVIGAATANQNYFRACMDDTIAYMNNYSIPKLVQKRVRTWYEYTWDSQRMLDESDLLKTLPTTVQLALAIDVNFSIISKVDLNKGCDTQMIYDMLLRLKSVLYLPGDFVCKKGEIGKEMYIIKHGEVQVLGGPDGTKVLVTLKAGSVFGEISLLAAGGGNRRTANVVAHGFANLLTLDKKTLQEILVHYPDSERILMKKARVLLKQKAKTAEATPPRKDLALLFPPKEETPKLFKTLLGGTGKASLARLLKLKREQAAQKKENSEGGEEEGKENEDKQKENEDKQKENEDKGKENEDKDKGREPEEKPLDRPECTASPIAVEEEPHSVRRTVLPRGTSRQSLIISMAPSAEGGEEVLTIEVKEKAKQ
Protocol: as §1, §2

[3] = representative patch, Figure 5A
[4] = representative patch, Figure 1B

Nc1ncnc2c1nc(Sc1ccc(Cl)cc1)n2[C@@H]1O[C@@H]2COP(=O)(O)O[C@H]2[C@H]1O [CPT-cAMP, CPT-adenosine 3′,5′-cyclic monophosphate]
relative agonist efficacy Imax, CPT-cAMP/Imax, CPT-cGMP ([1]; +80 mV, CPT-cAMP 100 μM vs CPT-cGMP 4 μM, mean±SEM, n=8): 0.07±0.01
Hill slope h, CPT-cAMP activation ([1]; Hill fit, mean±SEM, n=9): 1.8±0.1
EC50 ([1]; Hill fit, mean±SEM, n=9, read-out: apparent affinity K1/2, CPT-cAMP (channel activation)): 29.8 ± 1.9 µM
Hill slope h, CPT-cAMP, representative dose-response [1, 3]: 1.6
EC50 ([1]; representative patch, Figure 5A, read-out: K1/2, cAMP, representative dose-response for CPT-cAMP activation): 27.9 µM
relative agonist efficacy Imax, CPT-cAMP/Imax, CPT-cGMP ([2]; +80 mV, CPT-cAMP 100 μM vs CPT-cGMP 4 μM, mean±SEM, n=15): 0.49±0.04
Hill slope h, CPT-cAMP activation ([2]; Hill fit, mean±SEM, n=15): 1.4±0.08
EC50 ([2]; Hill fit, mean±SEM, n=15, read-out: apparent affinity K1/2, CPT-cAMP (channel activation)): 13.8 ± 1.4 µM
Hill slope h, CPT-cAMP, representative dose-response [2, 3]: 1.0
EC50 ([2]; representative patch, Figure 5A, read-out: K1/2,CPT-cAMP, representative dose-response): 10.8 µM

Nc1nc2c(nc(Sc3ccc(Cl)cc3)n2[C@@H]2O[C@@H]3COP(=O)(O)O[C@H]3[C@H]2O)c(=O)[nH]1 [CPT-cGMP, 8-(4-chlorophenylthio) guanosine 3′,5′-cyclic monophosphate]
Hill slope h, CPT-cGMP activation ([1]; +80 mV, Hill fit, mean±SEM, n=8): 2.2±0.1
EC50 ([1]; +80 mV, Hill fit, mean±SEM, n=8, read-out: apparent CPT-cGMP affinity K1/2, CPT-cGMP (channel activation)): 0.105 ± 0.0073 µM
maximum patch current density (Imax/area) ([1]; +80 mV, saturating CPT-cGMP (4 μM), mean±SEM, n=9): 86.6±17.0 pA/μm^2
Hill slope h, CPT-cGMP, representative dose-response [1, 4]: 1.9
EC50 ([1]; representative patch, Figure 1B, read-out: K1/2, cGMP, representative dose-response for CPT-cGMP activation): 0.111 µM
Hill slope h, CPT-cGMP activation ([2]; +80 mV, Hill fit, mean±SEM): 1.8±0.04
EC50 ([2]; +80 mV, Hill fit, mean±SEM, read-out: apparent CPT-cGMP affinity K1/2, CPT-cGMP (channel activation)): 0.0868 ± 0.0106 µM
maximum patch current density (Imax/area) ([2]; +80 mV, saturating CPT-cGMP (4 μM), mean±SEM, n=15): 80.3±18.6 pA/μm^2
Hill slope h, CPT-cGMP, representative dose-response [2, 4]: 1.7
EC50 ([2]; representative patch, Figure 1B, read-out: K1/2,CPT-cGMP, representative dose-response): 0.079 µM
